Holding throughout (assay): growth of human tumour cells (NCI), 48 h
The test system of assay [1] is NCI-H23 lung.
Assay [2] has as its system OVCAR-3 ovarian.
For assay [3], the system named is RXF 393 renal.
In assay [4] the test system is SK-MEL-5 melanoma.
In assay [5] the test system is IGROV1 ovarian.
Assay [6] relates to HCT-116 colon.
Assay [7] has as its system UACC-257 melanoma.
The test system of assay [8] is MDA-MB-435.
Assay [9] concerns DU-145 prostate.

Data on 16 compounds can be found in PubChem BioAssay (NCI).

The structures appear in SMILES notation.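 Following 48 hours of exposure in 96-well plates, responses at five concentrations were used to interpolate endpoints linearly. GI50 marks 50% less growth. TGI marks complete inhibition of growth.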

Consider `CN(C)CC/[N+]([O-])=C(/c1ccccc1)C12CC3CC(CC(C3)C1)C2`, for which the TGI in assay [1] came to 37.4 µM; in assay [2], 27.8 µM; in assay [3], 32.9 µM; in [4] it was 32 µM; in [5] it was 33.9 µM; in [6], 32 µM. Also, in [7], the TGI was determined as 29.9 µM.
For the compound `O=c1c2cc(Cl)ccc2sc2cccc(Cl)c12`, the TGI in [1], in [2], in assay [3], in assay [5], in assay [6] and in [7] was > 100 µM each time.
Regarding `CC(C)(c1ccccc1)c1ccc(OC#N)cc1`, the TGI in [1] was > 100 µM; in assay [2] it was > 100 µM; in assay [3] it was > 100 µM; in [4], > 100 µM; in [5], > 100 µM; in assay [6], > 65.7 µM. Besides, the TGI in [7] was > 100 µM.
On to `Oc1ccc2oc3ncc(Br)c(-c4ccccc4)c3c2c1`, for which the GI50 in assay [8], in assay [1], in assay [2], in assay [9], in assay [3] and in assay [4] was > 100 µM in each case. The GI50 in assay [5], in assay [6] and in assay [7] was > 100 µM each time. For the same compound, the TGI in assay [8], in assay [1], in assay [2], in assay [9], in [3] and in assay [4] was > 100 µM in each case. For the same compound, the TGI in assay [5], in assay [6] and in [7] was > 100 µM each time.
On to `Cc1cccc(C)c1NC(=O)C(=O)Nn1c(NN)nc2ccccc2c1=O`, for which the TGI in [1], in assay [2], in [3], in [4], in assay [5] and in assay [6] was > 100 µM in each case. Moreover, the TGI in [7] was > 100 µM.
As to `COc1ccccc1NC(=O)CC(=O)N/N=C/c1ccc(N(CCC#N)S(=O)(=O)c2ccccc2)cc1`, the TGI in [1], in [2], in [4], in assay [5], in assay [6] and in [7] was > 100 µM in each case.
Turning to `N#CC1CCCCCCCCCCC(=O)N(CCCl)C1=O` (configuration not stated), the TGI in [1], in [2], in assay [3], in assay [4], in assay [5] and in assay [7] was > 100 µM throughout.
As to `O=C(NC12CC3CC(CC(C3)C1)C2)C(=O)c1c[nH]c2ccccc12`, the TGI in assay [1] came out at 29.6 µM; in [2] it was 31 µM; in [4] it was 30.4 µM; in assay [5], 29.3 µM; in assay [6] it was 30.5 µM; in [7], 25.9 µM.
With `COc1cc2c(cc1OC)/C(=C\c1ccccc1N)C(=O)OC2`, the TGI in assay [1] is 42.7 µM; in assay [2] it was 35.7 µM; in [3], 12.9 µM; in [4] it was 32.6 µM; in assay [5], 36.7 µM; in assay [7], 34.3 µM.
As to `O=C1C(=Cc2c(O)cc(O)cc2O)C(=O)c2ccccc21`, the TGI in [1] was > 53.9 µM; in assay [2], > 55 µM; in assay [9] it was 38.5 µM; in [3], 27.9 µM; in assay [4], > 100 µM; in assay [5], > 59.8 µM. For the same compound, the TGI in [6] was > 53.7 µM; in assay [7], > 58.1 µM.
In the case of `CC(=O)OCC1OC(n2c(-c3ccc(C)cc3)cc(-c3ccccc3)c(C#N)c2=O)C(OC(C)=O)C(OC(C)=O)C1OC(C)=O` (configuration not stated), the TGI in assay [1], in [2], in assay [4], in [5], in assay [6] and in [7] was > 100 µM in each case.
As for `Cc1cc(C)cc(NC(N)=S)c1`, the TGI is > 100 µM in assay [1]; > 100 µM in [2]; 98.1 µM in [3]; > 100 µM in assay [4]; > 100 µM in [5]; > 100 µM in [6]. Further, the TGI in assay [7] was > 100 µM.
Consider `CC(=O)C1=C(O)CC2CC3c4[nH]c5ccccc5c4CCN3CC2C1` (configuration not stated), for which the TGI in [1] was > 100 µM; in [2], > 100 µM; in assay [3], 82.3 µM; in [4], > 100 µM; in assay [5] it was > 100 µM; in [6], > 100 µM. In assay [7], the TGI was > 100 µM.
Take `O=C(c1ccccc1)c1cn(/N=C\c2ccccc2)c(=O)nc1-c1ccccc1`: the TGI in assay [1], in assay [2], in assay [3], in assay [4], in [6] and in assay [7] was > 100 µM each time.
For the compound `CCCSS[C@H]1NC(=O)[C@H]1NC(=O)COc1ccccc1`, the TGI was found to be 31.9 µM in assay [1]; 31.5 µM in [2]; 29.7 µM in [3]; 54.9 µM in assay [4]; 43.2 µM in assay [5]; 22 µM in assay [6]. This compound also displayed a TGI in [7] of 27.8 µM.
With `C=CCC1C(=O)CC2(C)CC(=O)C(CC=C)C12C` (configuration not stated), the TGI in assay [1], in assay [2], in assay [3], in assay [4], in [5] and in [6] was > 100 µM each time. In addition, the TGI in [7] is > 100 µM.
